{"source": "paper PMC12485664", "about": "“Interaction of class III cellobiose dehydrogenase with lytic polysaccharide monooxygenase” (FEBS Open Bio, 2025)", "key": {"NcAA9C (NcLPMO9C)": {"target": "T1, NcAA9C (NcLPMO9C) (Neurospora crassa, UniProt Q7SHI8)", "T1 construct": "gene gh61-3; recombinant secreted in Komagataella phaffii, FPLC purified; copper enzyme, C4-acting", "T1 sequence (Q7SHI8 17-359)": "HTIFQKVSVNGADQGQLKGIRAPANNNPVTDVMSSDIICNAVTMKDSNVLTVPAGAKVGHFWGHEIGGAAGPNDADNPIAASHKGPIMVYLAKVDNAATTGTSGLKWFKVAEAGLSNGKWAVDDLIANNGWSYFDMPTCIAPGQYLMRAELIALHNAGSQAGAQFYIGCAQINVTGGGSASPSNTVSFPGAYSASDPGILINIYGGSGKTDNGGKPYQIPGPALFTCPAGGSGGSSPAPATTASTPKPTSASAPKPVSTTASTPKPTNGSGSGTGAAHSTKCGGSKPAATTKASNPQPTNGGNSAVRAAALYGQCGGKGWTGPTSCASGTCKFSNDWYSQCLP", "assay": "batch conversion, RDE H2O2 consumption, HPAEC-PAD and MALDI-TOF-MS of products", "type": "biochemical", "settings": "H2O2 cosubstrate, 5 mM ascorbic acid, 30 mM sodium acetate pH 5.0, 100 mM KCl"}, "[1]": {"test_system": "T2, FsCDH (class III cellobiose dehydrogenase)", "T2 construct": "gene CDH; flavocytochrome with cytochrome and dehydrogenase domains; recombinant secreted in Komagataella phaffii, FPLC purified", "assay": "DCIP reduction, plate reader, Michaelis-Menten fit", "type": "biochemical, Fusarium solani", "settings": "0.3 mM DCIP, 50 mM potassium phosphate pH 6.0", "from_the_text": "DCIP reduction, plate reader, Michaelis-Menten fit on FsCDH (class III cellobiose dehydrogenase)"}}}
{"smiles": "OC[C@H]1O[C@@H](O[C@H]2[C@H](O)[C@@H](O)[C@H](O[C@H]3[C@H](O)[C@@H](O)[C@H](O[C@H]4[C@H](O)[C@@H](O)[C@H](O[C@H]5[C@H](O)[C@@H](O)C(O)O[C@@H]5CO)O[C@@H]4CO)O[C@@H]3CO)O[C@@H]2CO)[C@H](O)[C@@H](O)[C@@H]1O", "note": "(stereo partly shown) [cellopentaose]", "values": [{"measurement": "batch conversion, RDE H2O2 consumption, HPAEC-PAD and MALDI-TOF-MS of products", "setting": "NcAA9C (NcLPMO9C)", "result": "a batch reaction employing NcAA9C, H2O2 as cosubstrate"}]}
{"smiles": "OC[C@H]1O[C@@H](O[C@H]2[C@H](O)[C@@H](O)[C@H](O[C@H]3[C@H](O)[C@@H](O)C(O)O[C@@H]3CO)O[C@@H]2CO)[C@H](O)[C@@H](O)[C@@H]1O", "note": "(stereo partly shown) [cellotriose]", "values": [{"measurement": "Km", "setting": "[1]", "result": "16.1 ± 2.9", "unit": "µM"}]}
{"smiles": "OC[C@H]1O[C@@H](O[C@H]2[C@H](O)[C@@H](O)C(O)O[C@@H]2CO)[C@H](O)[C@@H](O)[C@@H]1O", "note": "(stereo partly shown) [cellobiose]", "values": [{"measurement": "Km", "setting": "[1]", "result": "21.4 ± 3", "unit": "µM"}]}
{"smiles": "OC[C@H]1OC(O)[C@H](O)[C@@H](O)[C@@H]1O[C@@H]1O[C@H](CO)C(O)(O)[C@H](O)[C@H]1O", "note": "(stereo partly shown) [Glc4gemGlc]", "values": [{"measurement": "Km", "setting": "[1]; sample not treated with β-glucosidase, 1 to 100 μM", "result": "30.6 ± 8.3", "unit": "µM"}]}
